Here are results for five molecules from patent US20090124682A1, “Indan-Amide Derivatives with Glycogen Phosphorylase Inhibitory Activity” (priority 2005, published 2009).

The test system of one assay is conscious dogs. The note with it: following a glucagon challenge; cited from earlier work.
The next assay has as its system db/db and ob/ob mice. Particulars: db/db and ob/ob mice following treatment; cited from earlier work.
In another assay the test system is hepatocytes. Particulars: cited from earlier work; for glucose output: glucagon stimulated.
The target of assay [1] is T1, Human recombinant liver glycogen phosphorylase a (hrl GPa) (Homo sapiens, UniProt P06737).
T1 sequence (P06737 1-847): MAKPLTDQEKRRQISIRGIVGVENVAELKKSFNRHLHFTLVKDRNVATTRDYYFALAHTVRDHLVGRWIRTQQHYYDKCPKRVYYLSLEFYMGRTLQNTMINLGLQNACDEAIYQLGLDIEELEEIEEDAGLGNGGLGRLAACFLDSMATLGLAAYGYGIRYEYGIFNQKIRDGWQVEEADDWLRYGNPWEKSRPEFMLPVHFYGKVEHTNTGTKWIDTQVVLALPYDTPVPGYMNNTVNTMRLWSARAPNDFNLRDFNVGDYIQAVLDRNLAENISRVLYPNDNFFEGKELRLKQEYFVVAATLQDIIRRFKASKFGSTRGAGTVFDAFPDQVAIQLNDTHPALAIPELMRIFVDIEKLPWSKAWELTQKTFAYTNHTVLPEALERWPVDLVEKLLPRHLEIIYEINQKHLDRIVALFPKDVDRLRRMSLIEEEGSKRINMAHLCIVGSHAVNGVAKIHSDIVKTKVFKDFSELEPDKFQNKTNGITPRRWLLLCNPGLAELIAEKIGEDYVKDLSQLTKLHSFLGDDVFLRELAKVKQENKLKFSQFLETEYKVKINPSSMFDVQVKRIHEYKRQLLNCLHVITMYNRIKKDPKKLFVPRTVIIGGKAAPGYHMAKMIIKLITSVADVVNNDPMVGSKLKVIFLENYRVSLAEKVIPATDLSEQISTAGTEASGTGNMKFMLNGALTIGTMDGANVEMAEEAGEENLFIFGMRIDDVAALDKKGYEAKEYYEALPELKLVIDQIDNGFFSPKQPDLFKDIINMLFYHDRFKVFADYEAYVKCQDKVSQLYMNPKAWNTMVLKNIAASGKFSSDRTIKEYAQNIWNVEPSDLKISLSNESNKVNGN
The assay is described as follows: glycogen phosphorylase multienzyme coupled assay (glucose-1-phosphate production from glycogen). It counts as biochemical. Particulars: hrl GPa 20 nM, 6 hours at 30° C., 8 mM glucose. Here is the method:
The activity of the compounds is determined by measuring the inhibitory effect of the compounds on glycogen degradation, the production of glucose-1-phosphate from glycogen is monitored by the multienzyme coupled assay, as described in EP 0 846 464 A2, general method of Pesce et al (Pesce, M A, Bodourian, S H, Harris, R C, and Nicholson, J F (1977) Clinical Chemistry 23, […]). The reactions were in 384 well microplate format in a volume of 50 μl. The change in fluorescence due to the conversion of the co-factor NAD to NADH is measured at 340 nm excitation, 465 nm emission in a Tecan Ultra Multifunctional Microplate Reader. The reaction is in 50 mM HEPES, 3.5 mM KH2PO4, 2.5 mM MgCl2, 2.5 mM ethylene glycol-bis(b-aminoethyl ether) N,N,N′N′-tetraacetic acid, 100 mM KCl, 8 mM D-(+)-glucose pH7.2, containing 0.5 mM dithiothreitol, the assay buffer solution. Human recombinant liver glycogen phosphorylase a (hrl GPa) 20 nM is pre-incubated in assay buffer solution with 6.25 mM NAD, 1.25 mg type III glycogen at 1.25 mg ml^−1 the reagent buffer, for 30 minutes. […] The non-inhibited activity of GPa is measured in the presence of 10 μl 15% DMSO in assay buffer solution and maximum inhibition measured in the presence of 5 mgs ml^−1 N-ethylmaleimide. […] Relative Fluoresence Units (RFUs) are measured at 340 nm excitation, 465 nm emission. […]
Activity is calculated as follows:—

For orientation: IC50 means the concentration that inhibits the measured activity by half.

Consider `CCN1C(C)=C(C(=O)OC(C)C)C(c2ccccc2Cl)C2=C1COC2=O` (stereo not shown) [Bay R 3401], for which, in the assay with conscious dogs, the arterial plasma glucose result is on record as “reduced significantly” and the hepatic glucose output result is “reduced significantly”.
Turning to `CN(C)C(=O)[C@H](O)[C@H](Cc1ccccc1)NC(=O)c1cc2cc(Cl)ccc2[nH]1` [CP91149], the plasma glucose concentration entry with db/db and ob/ob mice is on record as “reduced, in a dose related manner”. In the assay with hepatocytes, the glucagon stimulated glycogenolysis result is “reduce” and the glucose output result is recorded as “reduce”.
Consider `O=C(N[C@@H](Cc1ccc(F)cc1)C(=O)N1CCC(O)CC1)c1cc2cc(Cl)ccc2[nH]1` [CP320626], for which the plasma glucose concentration entry in the assay on db/db and ob/ob mice is “reduced, in a dose related manner”. Further, in the assay on hepatocytes, the glucagon stimulated glycogenolysis result is listed as “reduce” and the glucose output entry is recorded as “reduce”.
In the case of `O=C(O)COC[C@@H]1c2ccccc2C[C@H]1NC(=O)c1cc2cc(F)ccc2[nH]1` [Example 2, [((1R,2R)-2-{[(5-Fluoro-1H-indol-2-yl)carbonyl]amino}-2,3-dihydro-1H-inden-1-yl)methoxy]acetic acid], in assay [1], the IC50 was found to be 1670 nM.
As for `O=C(O)C[C@@H]1c2ccccc2C[C@H]1NC(=O)c1cc2cc(F)ccc2[nH]1` [Example 5, ((1R,2R)-2-{[(5-Fluoro-1H-indol-2-yl)carbonyl]amino}-2,3-dihydro-1H-inden-1-yl)acetic acid], in assay [1], the concentration for half-maximal inhibition (IC50) is 161 nM.
